The values that follow come from US20140135310A1, “SULPHONAMIDE DERIVATIVES OF ALICYCLIC AMINES FOR THE TREATMENT OF CENTRAL NERVOUS SYSTEM DISEASES” (Adamed Sp. z o.o., priority 2011, published 2014).

Experiment [1] has as its target T1, serotonin transporter (SERT) (Homo sapiens, UniProt P31645).
T1 construct: expressed in transfected cells; host or cells: CHO cells
As to the kind of experiment: Radioligand binding assay, serotonin transporter (SERT). The conditions noted are these: binding assay, test compound 1×10^−6 M. The source says:
(§1) The specific ligand binding to the receptors is defined as the difference between the total binding and the non-specific binding determined in the presence of the excess of unlabelled ligand.
(§2) The results are expressed as a percent of control specific binding ((measured specific binding/control specific binding)×100) and as a percent inhibition of control specific binding (100−((measured specific binding/control specific binding)×100)) obtained in the presence of the test compounds. The specific ligand binding to the receptors is defined as the difference between the total binding and the nonspecific binding determined in the presence of an excess of unlabelled ligand. Scintillation counting was the method of detection of ligand binding. The IC50 values (concentration causing a half-maximal inhibition of control specific binding) were determined by non-linear regression analysis of the competition curves generated with mean replicate values using Hill equation curve fitting (Y=D+[(A−D)/(1+(C/C50)nH)], where Y=specific binding, D=minimum specific binding, A=maximum specific binding, C=compound concentration, C50=IC50, and nH=slope factor). This analysis was performed using a software developed at Cerep (Hill software) and validated by comparison with data generated by the commercial software SigmaPlot® 4.0 for Windows® (© 1997 by SPSS Inc.). The inhibition constants (Ki) were calculated using the Cheng Prusoff equation (Ki=IC50/(1+(L/KD)), where L=concentration of radioligand in the assay, and KD=affinity of the radioligand for the receptor). A scatchard plot was used to determine the Kd.
Experimental conditions for tests are given in Table 12, and results of tests for representative compounds are given in Tables 13a and 13b.

The target in experiment [2] is dopaminergic receptors D3 (Homo sapiens, UniProt P35462). As to the kind of experiment: Radioligand binding assay, dopaminergic D3 receptors. Conditions: test compound 1×10^−6 M.
Sequence of dopaminergic receptors D3 (P35462 whole entry): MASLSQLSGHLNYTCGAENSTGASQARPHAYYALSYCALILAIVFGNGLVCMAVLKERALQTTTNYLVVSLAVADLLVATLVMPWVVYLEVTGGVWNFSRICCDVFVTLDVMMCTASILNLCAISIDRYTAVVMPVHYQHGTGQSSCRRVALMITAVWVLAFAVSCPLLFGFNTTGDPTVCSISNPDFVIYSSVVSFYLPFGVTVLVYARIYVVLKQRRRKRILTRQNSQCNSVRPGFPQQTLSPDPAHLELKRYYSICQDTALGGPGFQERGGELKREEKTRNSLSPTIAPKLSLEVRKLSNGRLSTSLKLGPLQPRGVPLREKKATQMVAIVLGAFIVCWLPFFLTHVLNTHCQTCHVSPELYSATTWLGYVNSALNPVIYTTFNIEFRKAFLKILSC
Source text: as §1, §2
(§3) Experimental conditions for tests are given in Table 1, the results of tests for representative compounds are given in Tables 2a and 2b (receptors D2 and D3) and in Table 3 (receptors D4).

The target in experiment [3] is dopaminergic receptors D2 (Homo sapiens, UniProt P14416). Put plainly: Radioligand binding assay, dopaminergic D2 receptors. The conditions noted are these: binding assay, test compound 1×10^−6 M.
Sequence of dopaminergic receptors D2 (P14416 whole entry): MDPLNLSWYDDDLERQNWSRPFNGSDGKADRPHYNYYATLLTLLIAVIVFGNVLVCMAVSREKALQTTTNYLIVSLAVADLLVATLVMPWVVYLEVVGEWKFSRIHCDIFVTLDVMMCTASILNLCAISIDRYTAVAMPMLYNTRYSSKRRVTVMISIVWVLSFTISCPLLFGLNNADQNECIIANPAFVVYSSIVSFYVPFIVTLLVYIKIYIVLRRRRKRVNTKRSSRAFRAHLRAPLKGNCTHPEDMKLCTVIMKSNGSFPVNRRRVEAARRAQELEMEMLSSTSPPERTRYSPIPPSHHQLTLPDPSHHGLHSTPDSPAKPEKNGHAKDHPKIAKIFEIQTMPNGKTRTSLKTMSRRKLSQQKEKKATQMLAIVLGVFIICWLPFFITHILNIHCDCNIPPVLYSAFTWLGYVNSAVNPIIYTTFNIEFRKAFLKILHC
Source text: as §1, §2, §3

Experiment [4] concerns the target T2, 5-HT6 receptor (Homo sapiens, UniProt P50406).
T2 construct: purchased PerkinElmer
As to the kind of experiment: Radioligand binding assay, serotoninergic 5-HT6 receptors.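 Also: test compound at 1 µM.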 Conditions: binding assay result in %, Table 5a.
Source text: as §1, §2
(§4) Experimental conditions for tests are given in Table 4, and results of tests for representative compounds of the invention are given in Table 5a and 5b (receptors 5-HT1A, 5-HT2A, 5-HT6 and 5-HT7) and in Table 6 (receptors 5-HT2C).
5-HT6: Bryan L. Roth. Assay Protocol Book. University of North Carolina At Chapel Hill. National Institute of Mental Health. Psychoactive Drug Screening Program. Available on-line at 31 Aug. 2008: http://pdsp.med.unc.edu/UNC-CH %20Protocol%20Book.pdf

Experiment [5] concerns the target T3, 5-HT7 receptor (Homo sapiens, UniProt P34969).
T3 construct: purchased PerkinElmer
As to the kind of experiment: Radioligand binding assay, serotoninergic 5-HT7 receptors.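 Also: test compound at 1 µM.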 The conditions noted are these: binding assay result in %, Table 5a.
Source text: as §1, §2, §4
5-HT7: Bryan L. Roth. Assay Protocol Book. University of North Carolina At Chapel Hill. National Institute of Mental Health. Psychoactive Drug Screening Program. Available on-line at 31 Aug. 2008: http://pdsp.med.unc.edu/UNC-CH %20Protocol%20Book.pdf

For experiment [6], the target named is T4, 5-HT1A receptor (rat hippocampus) (Rattus norvegicus, UniProt P19327).
T4 construct: hippocampus; from tissue; host or cells: rat hippocampus
T4 sequence (P19327 1-422): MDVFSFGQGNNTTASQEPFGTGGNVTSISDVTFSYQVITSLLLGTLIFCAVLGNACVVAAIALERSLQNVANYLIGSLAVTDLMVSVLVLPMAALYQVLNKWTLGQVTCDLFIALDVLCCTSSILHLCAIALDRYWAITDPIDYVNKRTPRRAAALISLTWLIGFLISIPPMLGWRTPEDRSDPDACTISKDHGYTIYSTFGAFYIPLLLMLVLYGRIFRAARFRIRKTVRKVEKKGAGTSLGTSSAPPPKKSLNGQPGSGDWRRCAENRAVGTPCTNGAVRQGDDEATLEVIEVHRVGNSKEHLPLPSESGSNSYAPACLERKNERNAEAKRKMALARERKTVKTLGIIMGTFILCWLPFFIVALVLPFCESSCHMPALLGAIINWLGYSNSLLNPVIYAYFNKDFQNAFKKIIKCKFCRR
Put plainly: Radioligand binding assay, serotoninergic 5-HT1A receptors.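 Also: test compound at 1 µM.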 Conditions: binding assay result in %, Table 5a.
Source text: as §1, §2, §4

The target of experiment [7] is T5, 5-HT2A receptor (Homo sapiens, UniProt P28223).
T5 construct: purchased PerkinElmer
T5 sequence (P28223 whole entry): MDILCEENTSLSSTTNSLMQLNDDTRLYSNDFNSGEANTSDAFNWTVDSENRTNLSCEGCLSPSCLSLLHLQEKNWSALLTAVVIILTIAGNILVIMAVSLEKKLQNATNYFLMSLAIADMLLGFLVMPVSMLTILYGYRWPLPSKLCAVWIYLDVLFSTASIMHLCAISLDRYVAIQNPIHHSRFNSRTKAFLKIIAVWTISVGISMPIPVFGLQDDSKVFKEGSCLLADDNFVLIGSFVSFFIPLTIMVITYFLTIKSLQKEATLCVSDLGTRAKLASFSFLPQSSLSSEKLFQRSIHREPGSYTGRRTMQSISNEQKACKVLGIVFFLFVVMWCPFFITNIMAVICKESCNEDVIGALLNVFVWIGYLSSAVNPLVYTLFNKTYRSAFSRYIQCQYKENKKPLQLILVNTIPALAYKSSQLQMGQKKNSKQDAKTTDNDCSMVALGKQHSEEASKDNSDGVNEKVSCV
As to the kind of experiment: Radioligand binding assay, serotoninergic 5-HT2A receptors. The conditions noted are these: binding assay result in %, Table 5a.
Source text: as §1, §2
5-HT2A: Bryan L. Roth. Assay Protocol Book. University of North Carolina At Chapel Hill. National Institute of Mental Health. Psychoactive Drug Screening Program. Available on-line at 31 Aug. 2008: http://pdsp.med.unc.edu/UNC-CH%20Protocol%20Book.pdf

T1 sequence (P31645 whole entry): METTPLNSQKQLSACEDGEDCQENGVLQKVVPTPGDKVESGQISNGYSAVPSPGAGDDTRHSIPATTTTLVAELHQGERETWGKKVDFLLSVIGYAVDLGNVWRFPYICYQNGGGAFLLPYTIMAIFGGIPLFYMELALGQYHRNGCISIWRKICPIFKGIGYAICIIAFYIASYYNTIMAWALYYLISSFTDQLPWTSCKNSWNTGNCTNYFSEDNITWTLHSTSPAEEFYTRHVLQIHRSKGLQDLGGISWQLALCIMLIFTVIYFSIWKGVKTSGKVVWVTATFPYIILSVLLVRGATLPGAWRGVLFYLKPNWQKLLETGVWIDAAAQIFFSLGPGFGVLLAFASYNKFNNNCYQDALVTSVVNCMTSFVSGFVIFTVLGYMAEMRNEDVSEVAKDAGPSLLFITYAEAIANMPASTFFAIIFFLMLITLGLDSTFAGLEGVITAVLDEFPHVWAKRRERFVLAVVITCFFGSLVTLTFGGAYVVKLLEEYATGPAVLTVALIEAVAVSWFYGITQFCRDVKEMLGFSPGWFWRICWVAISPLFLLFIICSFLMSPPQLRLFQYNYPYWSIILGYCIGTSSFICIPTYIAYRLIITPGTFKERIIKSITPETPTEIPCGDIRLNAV
T3 sequence (P34969 whole entry): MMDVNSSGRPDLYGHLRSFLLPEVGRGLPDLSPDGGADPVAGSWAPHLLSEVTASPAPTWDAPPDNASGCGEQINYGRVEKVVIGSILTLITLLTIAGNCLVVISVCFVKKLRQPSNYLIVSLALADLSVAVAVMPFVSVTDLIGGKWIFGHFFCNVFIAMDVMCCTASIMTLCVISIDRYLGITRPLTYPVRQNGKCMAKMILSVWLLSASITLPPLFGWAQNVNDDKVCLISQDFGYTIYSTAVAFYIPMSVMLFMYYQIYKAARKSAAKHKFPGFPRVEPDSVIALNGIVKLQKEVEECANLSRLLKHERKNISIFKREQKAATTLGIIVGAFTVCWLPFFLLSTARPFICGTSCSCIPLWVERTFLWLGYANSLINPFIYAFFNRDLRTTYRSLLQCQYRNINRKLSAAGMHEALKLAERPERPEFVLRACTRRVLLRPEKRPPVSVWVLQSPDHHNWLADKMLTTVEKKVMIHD
T2 sequence (P50406 whole entry): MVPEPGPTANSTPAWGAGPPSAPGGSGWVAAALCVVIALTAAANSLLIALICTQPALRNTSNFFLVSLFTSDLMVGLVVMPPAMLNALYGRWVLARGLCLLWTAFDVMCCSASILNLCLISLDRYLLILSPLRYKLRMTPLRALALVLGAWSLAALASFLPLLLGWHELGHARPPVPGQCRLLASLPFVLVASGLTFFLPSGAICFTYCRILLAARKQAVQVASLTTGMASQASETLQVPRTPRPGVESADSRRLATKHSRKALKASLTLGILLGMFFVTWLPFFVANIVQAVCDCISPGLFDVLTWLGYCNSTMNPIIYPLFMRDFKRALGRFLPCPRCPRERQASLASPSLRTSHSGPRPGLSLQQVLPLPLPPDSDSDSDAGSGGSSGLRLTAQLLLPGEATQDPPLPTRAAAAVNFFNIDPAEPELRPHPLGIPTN

Take “3-tert-Butyl-N-[[1-[3-(6-fluoro-1,2-benzoxazol-3-yl)propyl]pyrrolidin-3-yl]methyl]benzenesulphonamide [Compound 249]”: in experiment [1], the “SERT [%]” value is reported as 28%. Also, the “D3 [%]” value in experiment [2] amounted to 36%. Further, the “D2 [%]” value in experiment [3] is reported as 4%. Further, the “5-HT6 [%]” value in experiment [4] is on record as 58%. In addition, in experiment [5], the “5-HT7 [%]” value is given as 87%. In addition, in experiment [6], the “5-HT1A [%]” value came to 23%. The “5-HT2A [%]” value in experiment [7] is on record as 79%.
Turning to “4-Fluoro-N-[[1-[3-(6-fluoro-1,2-benzoxazol-3-yl)propyl]azetidin-3-yl]methyl]benzenesulphonamide [Compound 147]”, in experiment [1], the “SERT [%]” value is listed as 24%. Moreover, in experiment [2], the “D3 [%]” value worked out at 74%. Further, in experiment [3], the “D2 [%]” value is given as 88%. Moreover, in experiment [4], the “5-HT6 [%]” value is reported as 86%. Further, the “5-HT7 [%]” value in experiment [5] was found to be 89%. The “5-HT1A [%]” value in experiment [6] was determined as 60%. Further, the “5-HT2A [%]” value in experiment [7] is on record as 95%.
Take `O=S(=O)(NC1CCN(CCCc2noc3cc(F)ccc23)C1)c1ccc(Br)cc1` (stereo not shown) [Compound 10, 4-Bromo-N-[1-[3-(6-fluoro-1,2-benzoxazol-3-yl)propyl]pyrrolidin-3-yl]benzenesulphonamide]: the inhibition – broadly, the drop in the measured response relative to a control, in per cent – at 1 µM is -2% in experiment [1]; 49% in experiment [2]; 99% in experiment [3]; 85% in experiment [4]; 86% in experiment [5]; 20% in experiment [6]. Moreover, in experiment [7], the inhibition at 1 µM came out at 96%.
Consider `CC(C)(C)c1ccc(S(=O)(=O)NC2CCN(CCCc3noc4cc(F)ccc34)C2)cc1` (stereo not shown) [Compound 14, 4-tert-Butyl-N-[1-[3-(6-fluoro-1,2-benzoxazol-3-yl)propyl]pyrrolidin-3-yl]benzenesulphonamide], for which the inhibition at 1 µM in experiment [1] is -3%; in experiment [2], 90%; in experiment [3], 100%; in experiment [4], 82%; in experiment [5], 76%; in experiment [6] it was 24%. Further, the inhibition at 1 µM in experiment [7] was found to be 80%.
Turning to `COc1cccc(S(=O)(=O)NC2CCN(CCCc3noc4cc(F)ccc34)C2)c1` (stereo not shown) [Compound 17, N-[1-[3-(6-Fluoro-1,2-benzoxazol-3-yl)propyl]pyrrolidin-3-yl]-3-methoxybenzenesulphonamide], the inhibition at 1 µM in experiment [1] amounted to 52%; in experiment [2] it was 20%; in experiment [3], 80%; in experiment [4], 76%; in experiment [5], 80%; in experiment [6], 23%. The inhibition at 1 µM in experiment [7] stood at 94%.
For `O=S(=O)(NC1CCN(CCCc2noc3cc(F)ccc23)CC1)c1ccccc1` [Compound 32, N-[1-[3-(6-Fluoro-1,2-benzoxazol-3-yl)propyl]-4-piperidine]benzene-sulphonamide], the “SERT [%]” value in experiment [1] came to 5%. For the same compound, the “D3 [%]” value in experiment [2] is recorded as 57%. Further, the “D2 [%]” value in experiment [3] came out at 63%. In addition, in experiment [4], the “5-HT6 [%]” value is 63%. Also, the “5-HT7 [%]” value in experiment [5] was 92%. The “5-HT1A [%]” value in experiment [6] worked out at 37%. Besides, the “5-HT2A [%]” value in experiment [7] was found to be 83%.
As to `Cc1cccc(S(=O)(=O)NC2CCN(CCCc3noc4cc(F)ccc34)CC2)c1` [Compound 33, N-[1-[3-(6-Fluoro-1,2-benzoxazol-3-yl)propyl]-4-piperidine]-3-methyl-benzenesulphonamide], in experiment [1], the “SERT [%]” value is recorded as −4%. Further, the “D3 [%]” value in experiment [2] is given as 58%. In experiment [3], the “D2 [%]” value was 54%. The “5-HT6 [%]” value in experiment [4] is listed as 91%. In experiment [5], the “5-HT7 [%]” value was determined as 100%. The “5-HT1A [%]” value in experiment [6] is 22%. The “5-HT2A [%]” value in experiment [7] worked out at 97%.
Regarding `O=S(=O)(NCC1CN(CCCc2noc3cc(F)ccc23)C1)c1ccc(Cl)cc1` [Compound 136, 4-Chloro-N-[[1-[3-(6-fluoro-1,2-benzoxazol-3-yl)propyl]azetidin-3-yl]methyl]benzenesulphonamide], the inhibition at 1 µM in experiment [1] is 9%; in experiment [2], 57%; in experiment [3], 62%; in experiment [4], 72%; in experiment [5] it was 80%; in experiment [6] it was 35%. For the same compound, the inhibition at 1 µM in experiment [7] worked out at 82%.
On to `O=S(=O)(NCC1CN(CCCc2noc3cc(F)ccc23)C1)c1cccc(Cl)c1` [Compound 137, 3-Chloro-N-[[1-[3-(6-fluoro-1,2-benzoxazol-3-yl)propyl]azetidin-3-yl]methyl]benzenesulphonamide], for which the inhibition at 1 µM was -5% in experiment [1]; 50% in experiment [2]; 76% in experiment [3]; 14% in experiment [4]; 82% in experiment [5]; 14% in experiment [6]. Moreover, the inhibition at 1 µM in experiment [7] is 62%.
For the compound `CC(C)(C)c1ccc(S(=O)(=O)NCC2CN(CCCc3noc4cc(F)ccc34)C2)cc1` [Compound 141, 4-tert-Butyl-N-[[1-[3-(6-fluoro-1,2-benzoxazol-3-yl)propyl]azetidin-3-yl]methyl]benzenesulphonamide], the inhibition at 1 µM in experiment [1] is -10%; in experiment [2], 58%; in experiment [3], 74%; in experiment [4], 92%; in experiment [5], 80%; in experiment [6], 9%. For the same compound, in experiment [7], the inhibition at 1 µM was 85%.
As for `Cc1cccc(S(=O)(=O)NCC2CN(CCCc3noc4cc(F)ccc34)C2)c1` [Compound 142, N-[[1-[3-(6-Fluoro-1,2-benzoxazol-3-yl)propyl]azetidin-3-yl]methyl]-3-methyl-benzenesulphonamide], the inhibition at 1 µM is -4% in experiment [1]; 45% in experiment [2]; 58% in experiment [3]; 37% in experiment [4]; 87% in experiment [5]; 29% in experiment [6]. Further, in experiment [7], the inhibition at 1 µM was determined as 77%.
On to `O=S(=O)(NCC1CN(CCCc2noc3cc(F)ccc23)C1)c1cccc(O)c1` [Compound 149, N-[[1-[3-(6-Fluoro-1,2-benzoxazol-3-yl)propyl]azetidin-3-yl]methyl]-3-hydroxy-benzenesulphonamide], for which the inhibition at 1 µM in experiment [1] is 22%; in experiment [2], 39%; in experiment [3], 91%; in experiment [4], 71%; in experiment [5], 113%; in experiment [6], 82%. Further, the inhibition at 1 µM in experiment [7] is 96%.
As to `O=S(=O)(NCC1CN(CCCc2noc3cc(F)ccc23)C1)c1cc2ccccc2s1` [Compound 153, N-[[1-[3-(6-Fluoro-1,2-benzoxazol-3-yl)propyl]azetidin-3-yl]methyl]-benzothiophene-2-sulphonamide], in experiment [1], the “SERT [%]” value is on record as 21%. For the same compound, the inhibition at 1 µM in experiment [2] came out at 61%; in experiment [3], 82%; in experiment [4], 80%; in experiment [5], 86%; in experiment [6] it was 55%; in experiment [7], 96%.
